Earlier results in article PMC2698789 (Pancreas, 2008).

Test system: sst 2 receptor

C[C@@H](O)[C@@H]1NC(=O)[C@H](CCCCN)NC(=O)[C@@H](Cc2c[nH]c3ccccc23)NC(=O)[C@H](Cc2ccccc2)NC(=O)[C@@H](NC(=O)[C@H](N)Cc2ccccc2)CSSC[C@@H](C(=O)N[C@H](CO)[C@@H](C)O)NC1=O [octreotide, Octreotide acetate]
Receptor subtype preference among somatostatin receptors sst 1–sst 5: binds preferentially to sst 2
